One data set deals with microglia. Kind of data set: Phagolysosomal degradation of synaptosomes and dead neurons by microglia. The data set is classed as cell-based. Conditions: SHIP1-dependent manner. From the text:
(§1) New small molecule SHIP1 activators are needed to explore the effects of these molecules in IBD and AD model systems to define the role of SHIP in these disorders. […] The K306 structure is related to a series of sulfonamide based endothelial lipase inhibitors. As the molecule came from screening, no information was available about structure activity relationships in this SHIP1 activator. Sulfonamides have been used previously as phosphate mimics in the development of phosphatase inhibitors however, so it is possible that one of the sulfonamides in the K306 structure is mimicking the one of the phosphates on PI(3,4)P2, the endogenous ligand for allosteric activation of SHIP1. […] Given that K306 provides a new class of SHIP1 activators with a unique binding site that could have implications in Crohn's disease and Alzheimer's disease, synthetic studies were initiated on the structure.

Another data set has as its system C2-less SHIP1 protein. Briefly: Agonism with SHIP1 protein lacking the C2 domain. The data set is classed as biochemical. Conditions: C2 domain of the protein deleted.
Source text: as §1

A further data set is described as follows: Half-life in vivo. The note with it: mice. An excerpt:
This is believed to be due to rapid oxidation of the sulfur functional groups in K306 by cytochrome P450 enzymes which are prevalent in mice. […] The thiophene is still a concern, however, as this heterocycle is known to undergo oxidation by CYP enzymes and can lead to toxic metabolites.

In data set [1] the target is T1, recombinant human truncated SHIP1 (tSHIP1) (Homo sapiens, UniProt Q92835).
T1 construct: tSHIP1 (SHIP1, residues 397-864) was amplified from pET24TEV-tSHIP1; His tag; made in house; host or cells: E. coli BL21
T1 sequence (Q92835 397-864): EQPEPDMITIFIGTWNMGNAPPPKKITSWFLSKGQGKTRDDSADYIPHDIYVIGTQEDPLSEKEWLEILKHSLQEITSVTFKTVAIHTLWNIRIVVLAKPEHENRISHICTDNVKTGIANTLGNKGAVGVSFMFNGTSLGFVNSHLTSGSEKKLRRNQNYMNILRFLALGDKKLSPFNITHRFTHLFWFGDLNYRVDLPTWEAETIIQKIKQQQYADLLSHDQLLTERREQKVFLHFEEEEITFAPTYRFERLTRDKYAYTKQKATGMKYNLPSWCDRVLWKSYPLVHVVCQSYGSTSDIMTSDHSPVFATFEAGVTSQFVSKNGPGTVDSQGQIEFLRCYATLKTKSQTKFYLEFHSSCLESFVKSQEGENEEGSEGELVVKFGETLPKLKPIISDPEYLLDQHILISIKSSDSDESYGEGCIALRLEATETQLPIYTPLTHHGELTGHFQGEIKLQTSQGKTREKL
Kind of data set: Malachite Green Phosphatase Release Assay (SHIP1 phosphatase activity). The format is biochemical. Conditions: for SHIP1 activation, increase in the malachite green assay: initial testing. Put shortly: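 Truncated SHIP1 (residues 397-864, His-tagged, E. coli-expressed) was preincubated 2 min at room temperature with compound in pH 7.4 Hepes buffer with MgCl2/EDTA. 100 μM PI(3,4,5)P3-diC8 was then added and the reaction run 20 min at 37 °C. Phosphate release was read with malachite green at 620 nm, as % of DMSO control activity.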

Molecules are shown by their SMILES.

Consider `Cc1sc(S(=O)(=O)N2CCSCC2)cc1NC(=O)CNS(=O)(=O)c1ccc(F)cc1` [Compound K306, 2-(4-Fluorobenzenesulfonamido)-N-[2-methyl-5-(thiomorpholine-4-sulfonyl)thiophen-3-yl]acetamide], for which the “Phagolysosomal degradation of synaptosomes and dead neurons by microglia” value in the data set on microglia was “enhance phagolysosomal degradation”. The “Agonism with C2-less SHIP1 protein” value in the data set on C2-less SHIP1 protein is “maintained agonism”. For the same compound, in “Half-life in vivo”, the Half-life in vivo entry was “short-half life in vivo”. The “Phosphatase activity in the Malachite Green Assay, analog concentration 125 μM” value in data set [1] (125 μM analog, 100 μM PI(3,4,5)P3-diC8 substrate, normalized to vehicle control (DMSO) = 100%) turned out to be 95%. For the same compound, the “Phosphatase activity in the Malachite Green Assay, analog concentration 250 μM” value in data set [1] (250 μM analog, 100 μM PI(3,4,5)P3-diC8 substrate, normalized to vehicle control (DMSO) = 100%) is 106%. Further, in data set [1] (500 μM analog, 100 μM PI(3,4,5)P3-diC8 substrate, normalized to vehicle control (DMSO) = 100%, >100% activation, <100% inhibition), the “Phosphatase activity in the Malachite Green Assay, analog concentration 500 μM” value amounted to 133%. Besides, the “SHIP1 activation, increase in the malachite green assay” value in data set [1] (tested at 250 μM) was found to be 6%; in data set [1] (tested at 500 μM), 33%.

Values taken from patent US20260199365A1, “BIS-SULFONAMIDE SHIP1 ACTIVATORS” (The Research Foundation for the State University of New York, priority 2022, published 2026).
